PMC9446893, “Zinc(II) Complex with Pyrazolone-Based Hydrazones is Strongly Effective against Trypanosoma brucei Which Causes African Sleeping Sickness” (Inorganic Chemistry, 2022)

How the values were obtained:
Balb/3T3 cells = assay: Cytotoxicity on Balb/3T3 mammalian reference cells (resazurin fluorescence); assay type: cell-based; conditions: mouse embryonic fibroblasts, 48 h + 24 h with resazurin
Protocol: (§1) The biological assays have been conducted in collaboration with Prof. Anders Hofer, Department of Medical Biochemistry and Biophysics, Umeå University, Umeå, Sweden. T. bruceiTC221 bloodstream forms and mouse embryonic fibroblast Balb/3T3 cells (ATCC no CCL-163) were cultivated in a vented plastic flask at 37 °C with 5% CO2. For T. brucei, the growth medium was Hirumi’s modified Iscoves medium (HMI)-9 supplemented with 10% (v/v) fetal bovine serum (Thermo Fischer Scientific Gibco, Waltham, MA, USA), whereas the Balb/3T3 cells were grown in Dulbecco’s modified Eagle’s medium (Sigma-Aldrich) supplemented with 10% (v/v) heat-inactivated fetal bovine serum, glutamine (0.584 g/L), and 10 mL/L 100 × penicillin–streptomycin (Gibco).[48]−[50] […] The plates were incubated for 48 h in the 5%CO2 incubator; then, 20 μL of 0.5 mM resazurine (Sigma-Aldrich) was added to each well, and the plates were incubated for an additional 24 h before the fluorescence was measured with the Synergy H4 microplate reader (excitation wavelength 530 or 540 nm and emission wavelength 590 nm).
(§2) The half-maximal efficacious concentration (EC50) values were calculated on the log inhibitor versus the response curves by non-linear regression using the GraphPad prism 5.2 software (GraphPad Software, Inc., La Jolla, CA, USA). […]

T. brucei TC221 = assay: Viability of T. brucei TC221 bloodstream forms (resazurin fluorescence); assay type: cell-based, Trypanosoma brucei
Protocol: as §1, §2

Cc1ccc(C(=O)Nc2ccc(S(=O)(=O)O)c3cc(S(=O)(=O)O)cc(S(=O)(=O)O)c23)cc1NC(=O)c1cccc(NC(=O)Nc2cccc(C(=O)Nc3cc(C(=O)Nc4ccc(S(=O)(=O)O)c5cc(S(=O)(=O)O)cc(S(=O)(=O)O)c45)ccc3C)c2)c1 [suramin, reference compound]
EC50 (Balb/3T3 cells): 43.9 ± 1.44 µM | SI (selectivity index) (T. brucei TC221; T. brucei versus Balb/3T3 reference cells): >100 | EC50 (T. brucei TC221; Trypanosoma brucei, bloodstream forms, 48 h + 24 h with resazurin): 23 ± 0.8 nM
